Data from US20120190719A1, “METHODS OF TREATING MOTOR DISORDERS WITH ALPHA-2B ANDRENERGIC RECEPTOR AGONISTS” (ALLERGAN, INC., priority 2009, published 2012).
Marks after values point to notes of the source that are not given here.

Test system: C57B/6 male mice
Test: Defensive burying (marble burying task)
Assay type: in vivo
Settings: WT mice; 300 ug/kg IP 30 minutes prior to defensive burying testing; marbles buried more than 2/3 after 30 minutes; N = 6/group; vehicle 46.40%
Text: The usefulness of alpha-2B receptor agonists in treating compulsive disorders are exemplified in a widely-used rodent model of compulsive behavior, the marble burying task. Absence of alpha2B receptor activity, either following treatment with an alpha2B receptor antagonist or in alpha2B receptor knockout mice, results in increased compulsive behavior in the marble burying task. […] Two alpha2B agonists used by the inventors, each belonging to a different compound class, are: Compound A, an imidazole thione, and Compound B, an imidazole amine.
Defensive burying: C57B/6 male mice (25-30 g) individually placed into plexiglass mouse cages filled with standard mouse bedding in their housing room. Each cage contained 7 small marbles (diameter 1 cm) and 7 larger marbles (diameter 1.5 cm). Mice remained in the cages for 30 minutes, after which time they were removed from their home cage and the number of marbles buried more than ⅔ was counted. Animals in treatment groups (Table 3) were administered compound IP (1 ml/kg) 30 min prior to testing.
For Table 2, data were evaluated by One-way ANOVA for overall effect of genotype [F(4,57)=4.155; P=0.0053]. Because the 2B WT is the only control for the 2B KO, an unpaired T-test was used to compare differences between 2B WT and 2B KO. For Table 3, data were evaluated by unpaired T-Test.

**Q.** With `CN1CCc2c(C#N)c(N)n(C)c(=S)c2C1` [Compound C] as the molecule, how does the “% Buried” value read?
**A.** The value was 61.90%**.
